Test results reported in patent publication US11214594B2, “Antimicrobial peptide having synergistic antibacterial effect with antibiotics on multidrug resistant bacteria, and use thereof” (priority 2016, dated 2022).
In brackets after ≈: the same amount, converted by molar mass. Where a SMILES comes first, the peptide text is derived from it.

Tests used:
MRSA 3114 = type: cell-based, Staphylococcus aureus; details: 3114
Summary of the method: (§1)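 Broth microdilution in MH medium: strains diluted to 2×10^6 CFU were mixed with equal volumes of twofold serial peptide dilutions in MH medium. MIC was taken as the lowest peptide concentration preventing bacterial growth.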

MRSA 3126 = type: cell-based, Staphylococcus aureus; details: 3126
Summary of the method: as §1

E. coli = experiment: MIC of antibiotic during combined treatment with antimicrobial peptide; type: cell-based, Escherichia coli; details: for Antibiotic MIC, Erythromycin / Antibiotic MIC, Linezolid / Antibiotic MIC, Vancomycin: E. coli
Summary of the method: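 Read-out is the MIC of each combined solution, obtained from MH-medium dilutions of antibiotic added well by well, with a reversed-condition run as well.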

MDREC 1238 = type: cell-based, Escherichia coli
Summary of the method: as §1

MDRAB 12035 = experiment: MIC of antibiotic during combined treatment with antimicrobial peptide; type: cell-based, Acinetobacter baumannii
Summary of the method: (§2)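 Strains in MH medium at 2×10^6 CFU/ml were mixed with peptide diluted stepwise (2:1) from its MIC, then antibiotic dilutions in MH medium were added to give the antibiotic MIC. The reversed set-up, peptide titrated against fixed antibiotic, gave the peptide MIC.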

S. aureus = experiment: microbe, parasite or virus in culture; type: cell-based, Staphylococcus aureus
Summary of the method: as §1

MDREC 1229 = experiment: MIC of antibiotic during combined treatment with antimicrobial peptide; type: cell-based, Escherichia coli; details: peptide treatment concentration 1 μg/ml
Summary of the method: as §2

[1] = peptide treatment concentration 1 μg/ml
[2] = peptide treatment concentration 2 μg/ml
[3] = peptide treatment concentration 4 μg/ml
[4] = peptide treatment concentration 6 μg/ml
[5] = peptide treatment concentration 8 μg/ml
[6] = peptide treatment concentration 16 μg/ml
[7] = peptide treatment concentration 32 μg/ml
[8] = peptide treatment concentration 64 μg/ml

CC[C@H](C)[C@H](NC(=O)[C@H](CCCCN)NC(=O)[C@H](Cc1c[nH]c2ccccc12)NC(=O)[C@@H](N)CCCNC(=N)N)C(=O)N[C@@H](Cc1ccccc1)C(=O)N[C@@H](CCCCN)C(=O)N[C@@H](CCCCN)C(=O)N[C@H](C(=O)N1CCC[C@H]1C(=O)N[C@@H](CCCCN)C(=O)N[C@@H](Cc1ccccc1)C(=O)N[C@@H](CC(C)C)C(=O)N[C@@H](Cc1c[nH]cn1)C(=O)N[C@@H](CO)C(=O)N[C@@H](CC(C)C)C(=O)N[C@@H](CCCCN)C(=O)N[C@@H](CCCCN)C(=O)N[C@@H](Cc1ccccc1)C(N)=O)[C@@H](C)CC [PapMA-6, RWK IFK KIP KFL HSL KKF-NH2] (H-RWKIFKKIPKFLHSLKKF-NH2; N-terminus assumed)
Minimal inhibitory concentration MIC (MRSA 3114): >128 µg/mL
Minimal inhibitory concentration MIC (MRSA 3126): >128 µg/mL
Synergistic effect of antibacterial activity with existing antibiotics compared with PapMA-1 (E. coli; E. coli and MDREC1229): higher level than the PapMA-1 peptide
Antibiotic MIC, Erythromycin (E. coli; erythromycin combined with peptide at 1 μg/ml): 64 µg/mL
Antibiotic MIC, Erythromycin (E. coli; erythromycin combined with peptide at 2 μg/ml): 64 µg/mL
Antibiotic MIC, Erythromycin (E. coli; erythromycin combined with peptide at 4 μg/ml): 8 µg/mL
Antibiotic MIC, Erythromycin (E. coli; erythromycin combined with peptide at 6 μg/ml): 4 µg/mL
Antibiotic MIC, Erythromycin (E. coli; erythromycin combined with peptide at 8 μg/ml): 0.5 µg/mL
Antibiotic MIC, Erythromycin (E. coli; erythromycin combined with peptide at 16 μg/ml): 0.25 µg/mL
Antibiotic MIC, Erythromycin (E. coli; erythromycin combined with peptide at 32 μg/ml): 0.125 µg/mL
Antibiotic MIC, Erythromycin (E. coli; erythromycin combined with peptide at 64 μg/ml): 0 µg/mL
Antibiotic MIC, Linezolid (E. coli; linezolid combined with peptide at 1 μg/ml): >128 µg/mL
Antibiotic MIC, Linezolid (E. coli; linezolid combined with peptide at 2 μg/ml): >128 µg/mL
Antibiotic MIC, Linezolid (E. coli; linezolid combined with peptide at 4 μg/ml): 32 µg/mL
Antibiotic MIC, Linezolid (E. coli; linezolid combined with peptide at 6 μg/ml): 8 µg/mL
Antibiotic MIC, Linezolid (E. coli; linezolid combined with peptide at 8 μg/ml): 8 µg/mL
Antibiotic MIC, Linezolid (E. coli; linezolid combined with peptide at 16 μg/ml): 2 µg/mL
Antibiotic MIC, Linezolid (E. coli; linezolid combined with peptide at 32 μg/ml): 2 µg/mL
Antibiotic MIC, Linezolid (E. coli; linezolid combined with peptide at 64 μg/ml): 0 µg/mL
Antibiotic MIC, Vancomycin (E. coli; vancomycin combined with peptide at 1 μg/ml): >128 µg/mL
Antibiotic MIC, Vancomycin (E. coli; vancomycin combined with peptide at 2 μg/ml): >128 µg/mL
Antibiotic MIC, Vancomycin (E. coli; vancomycin combined with peptide at 4 μg/ml): 32 µg/mL
Antibiotic MIC, Vancomycin (E. coli; vancomycin combined with peptide at 6 μg/ml): 16 µg/mL
Antibiotic MIC, Vancomycin (E. coli; vancomycin combined with peptide at 8 μg/ml): 8 µg/mL
Antibiotic MIC, Vancomycin (E. coli; vancomycin combined with peptide at 16 μg/ml): 2 µg/mL
Antibiotic MIC, Vancomycin (E. coli; vancomycin combined with peptide at 32 μg/ml): 1 µg/mL
Antibiotic MIC, Vancomycin (E. coli; vancomycin combined with peptide at 64 μg/ml): 0 µg/mL
Minimal inhibitory concentration MIC (MDREC 1238): 64 µg/mL (≈ 27.3 µM)
Erythromycin MIC during combined treatment with peptide (MDRAB 12035; [1]): 16 µg/mL
Linezolid MIC during combined treatment with peptide (MDRAB 12035; [1]): 128 µg/mL
Vancomycin MIC during combined treatment with peptide (MDRAB 12035; [1]): >128 µg/mL
Erythromycin MIC during combined treatment with peptide (MDRAB 12035; [2]): 8 µg/mL
Linezolid MIC during combined treatment with peptide (MDRAB 12035; [2]): 32 µg/mL
Vancomycin MIC during combined treatment with peptide (MDRAB 12035; [2]): 128 µg/mL
Erythromycin MIC during combined treatment with peptide (MDRAB 12035; [3]): 4 µg/mL
Linezolid MIC during combined treatment with peptide (MDRAB 12035; [3]): 16 µg/mL
Vancomycin MIC during combined treatment with peptide (MDRAB 12035; [3]): 64 µg/mL
Erythromycin MIC during combined treatment with peptide (MDRAB 12035; [4]): 0.5 µg/mL
Linezolid MIC during combined treatment with peptide (MDRAB 12035; [4]): 8 µg/mL
Vancomycin MIC during combined treatment with peptide (MDRAB 12035; [4]): 8 µg/mL
Erythromycin MIC during combined treatment with peptide (MDRAB 12035; [5]): 0.25 µg/mL
Linezolid MIC during combined treatment with peptide (MDRAB 12035; [5]): 4 µg/mL
Vancomycin MIC during combined treatment with peptide (MDRAB 12035; [5]): 8 µg/mL
Erythromycin MIC during combined treatment with peptide (MDRAB 12035; [6]): 0.125 µg/mL
Linezolid MIC during combined treatment with peptide (MDRAB 12035; [6]): 2 µg/mL
Vancomycin MIC during combined treatment with peptide (MDRAB 12035; [6]): 4 µg/mL
Erythromycin MIC during combined treatment with peptide (MDRAB 12035; [7]): 0.0625 µg/mL
Linezolid MIC during combined treatment with peptide (MDRAB 12035; [7]): 1 µg/mL
Vancomycin MIC during combined treatment with peptide (MDRAB 12035; [7]): 2 µg/mL
Erythromycin MIC during combined treatment with peptide (MDRAB 12035; [8]): 0 µg/mL
Linezolid MIC during combined treatment with peptide (MDRAB 12035; [8]): 0 µg/mL
Vancomycin MIC during combined treatment with peptide (MDRAB 12035; [8]): 0 µg/mL
Minimal inhibitory concentration MIC (S. aureus): >128 µg/mL
Antibiotic MIC, Erythromycin (MDREC 1229): 64 µg/mL
Antibiotic MIC, Linezolid (MDREC 1229): 128 µg/mL
